Measurements reported in patent EP1178967B1, “QUINOLINE DERIVATIVES AS INHIBITORS OF MEK ENZYMES” (AstraZeneca AB, priority 1999, dated 2000).

Molecular target: human p45MEK1 (GST-MEK) (Homo sapiens, UniProt Q02750)
Experiment: Assay for inhibitors of the MAP kinase pathway (coupled GST-MEK / GST-MAPK / MBP 33P incorporation assay)
Format: biochemical
Conditions: GST-MEK activated by c-raf, 60min at room temperature with inhibitor, MBP substrate
Experimental: To evaluate inhibitors of the MAPK pathway a coupled assay was carried out which measures phosphorylation of serine/threonine residues present in the substrate in the presence or absence of inhibitor. Recombinant glutathione S-transferase fusion protein containing human p45MEK1 (GST-MEK) was activated by c-raf (Sf9 insect cell lysate from triple baculoviral infection with c-raf/ras/lck) and used for the assay. Active GST-MEK was first used to activate a recombinant glutathione S-transferase fusion protein containing p44MAP kinase (GST-MAPK) in the presence of ATP and Mg^2+ for 60min at room temperature in the presence or absence of potential inhibitors. The activated GST-MAPK was then incubated with myelin basic protein (MBP) as substrate for 10min at room temperature in the presence of ATP, Mg^2+ and ^33P-ATP. The reaction was stopped by addition of 20% v/v phosphoric acid. Incorporation of ^33P into the myelin basic protein was determined by capture of the substrate on a filter mat, washing and counting using scintillation methods. The extent of inhibition was determined by comparison with untreated controls.
The final assay solution contained 10mM Tris, pH 7.5, 0.05mM EGTA, 8.33µM [γ^33P]ATP, 8.33mM Mg(OAc)2, 0.5mM sodium orthovanadate, 0.05%w/v BSA, 6.5ng GST-MEK, 1µg GST-MAPK and 16.5µg MBP in a reaction volume of 60µl.

human p45MEK1 (GST-MEK), sequence (Q02750 whole entry): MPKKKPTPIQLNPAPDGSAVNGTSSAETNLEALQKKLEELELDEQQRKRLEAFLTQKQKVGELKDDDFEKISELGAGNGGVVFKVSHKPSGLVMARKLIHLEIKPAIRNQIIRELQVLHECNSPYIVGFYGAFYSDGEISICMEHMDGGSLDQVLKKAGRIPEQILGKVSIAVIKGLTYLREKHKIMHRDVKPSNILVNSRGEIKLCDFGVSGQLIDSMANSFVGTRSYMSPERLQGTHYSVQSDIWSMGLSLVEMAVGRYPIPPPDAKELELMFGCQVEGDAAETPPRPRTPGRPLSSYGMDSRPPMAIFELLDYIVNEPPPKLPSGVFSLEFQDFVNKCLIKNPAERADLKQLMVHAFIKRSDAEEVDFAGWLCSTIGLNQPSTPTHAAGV

COc1cc2ncc(C#N)c(Nc3ccc(OCC4OCCO4)cc3)c2cc1OC [Compound No 252]
IC50: 150 nM
